# Test system: NCI-H841 complex tumor spheroid viability
# Assay: Anticancer human tumor NCI-H841 cell line growth inhibition;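 note: spheroids exposed to compounds for 7 days before readout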;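 for viability, T/C: 100% = DMSO vehicle control wells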
# Settings: for IC50: curve of first compound; for viability, T/C: stronger effect = lower value
# Text: Multicellular complex tumor spheroid response to DNA repair inhibitors in combination with DNA-damaging drugs
# This study explores the anticancer activities of DNA-damaging drugs and inhibitors of DNA damage repair, both as single agents and in combinations. Complex tumor spheroids comprised of malignant cells, endothelial cells and mesenchymal stem cells served as an in vitro model for human solid tumors. This model system incorporates physiologically relevant features and patient-derived or established malignant cell lines with clinically relevant genetic alterations from many tumor types. Twenty-six patient-derived or established malignant cell lines were evaluated representing sarcoma, melanoma, small cell lung cancer (SCLC), non-small cell lung cancer (NSCLC), as well as bladder, ovarian and pancreatic cancers. The concentration ranges selected for each drug and investigational agent were based upon clinically achievable concentrations if the clinical Cmax of the agent was known.
# Compounds. The drugs and compounds olaparib (NSC753686), talazoparib (NSC767125), berzosertib (NSC777718), elimusertib (NSC800525), nedisertib (NSC802822), VX-984 (NSC792969), AZD-1390 (NSC803789), temozolomide (NSC362856), topotecan (NSC609699), trabectedin (NSC813783), staurosporine (NSC755774), and gemcitabine (NSC613327) were obtained from the National Cancer Institute (NCI) Developmental Therapeutics Program Chemical Repository. The FDA-approved anticancer drug set is available from the Developmental Therapeutics Program at https://dtp.cancer.gov/organization/dscb/obtaining/available_plates.htm. […] The stock solutions were prepared in dimethyl sulfoxide (DMSO, Sigma-Aldrich, St. Louis, MO, cat. D2650) at 400-fold the tested concentration and stored at -70 degrees C. Prior to their use, the stock solutions were diluted in fresh medium and the final DMSO concentration in the assay was 0.25% (v/v). All drugs and investigational agents were tested over a range starting from a high concentration at or near the clinical Cmax and decreasing in half-log increments. If the clinical Cmax for an agent had not been determined, the highest concentration tested was 10 microM.
# Cell Lines. The patient-derived cancer cell (PDC) lines: 156681-154-R-J1-PDC, 283228-195-R-J1-PDC, 287954-098-R-J1-PDC, 292921-168-R-J2-PDC, 349418-098-R-PDC, 425362-245-T-J1-PDC, 556581-035-R-J1-PDC, and BL0293-F563-PDC were received from the NCI Patient-Derived Models Repository (PDMR, https://pdmr.cancer.gov). The established cell lines HS-SY-2 (RRID:CVCL_8719), MPNST, and SYO-1 (RRID:CVCL_7146) were obtained from the Sloan Kettering Institute. The alveolar soft parts sarcoma cell line ASPS-1 (RRID:CVCL_S738) was established at the NCI and grown from internal seed stocks. The following established cell lines were purchased from the American Type Culture Collection (ATCC, Manassas, VA): G-401 (ATCC, cat. CRL-1441, RRID:CVCL_0270), SW982 (ATCC, cat. HTB-93, RRID:CVCL_1734), VA-ES-BJ (ATCC, cat. CRL-2138, RRID:CVCL_1785), NCI-H719 (ATCC, cat. CRL-5837, RRID:CVCL_1582), NCI-H196 (ATCC, cat. CRL-5823, RRID:CVCL_1509), NCI-H841 (ATCC, cat. CRL-5845, RRID:CVCL_1595), NCI-H1618 (ATCC, cat. CRL-5879, RRID:CVCL_1480), NCI-H1876 (ATCC, cat. CRL-5902, RRID:CVCL_1503), DMS 114 (ATCC, cat. CRL-2066; RRID:CVCL_1174), NCI-H211 (ATCC, cat. CRL-5824; RRID:CVCL_1529), and SW 1271 (ATCC, cat. CRL-2177, RRID:CVCL_1716). The small cell lung cancer cell line COR-L88 was purchased from Sigma-Aldrich (cat. 92031917-1VL, RRID:CVCL_1141). The non-small cell lung cancer cell lines NCI-H226 (RRID:CVCL_1544) and NCI-H322M (RRID:CVCL_1557) were established at the NCI and grown from internal seed stocks. Pooled donor human umbilical vein endothelial cells (HUVEC, Lonza, cat. CC-2519) and human mesenchymal stem cells (hMSC, Lonza, cat. PT-2501) were purchased from Lonza (Walkersville, MD).
# Cell Culture. All cells were maintained in an incubator at 37 degrees C and 5% CO2 with 95% humidity. […]
structure (smiles),measurement,setting,value
Cc1cc(C)c(CNC(=O)c2cc(-c3ccc(CN4CCOCC4)cc3)cc3c2cnn3C2CCCC2)c(=O)[nH]1 + CC[C@@]1(O)C(=O)OCc2c1cc1n(c2=O)Cc2cc3c(CN(C)C)c(O)ccc3nc2-1,IC50,second compound 0.003 µM,5600 nM
same,IC50,second compound 0.00949 µM,713 nM
same,IC50,second compound 0.03 µM,< 31.6 nM
same,IC50,second compound 0.0949 µM,< 31.6 nM
same,IC50,second compound 0.3 µM,< 31.6 nM
same,"viability, T/C","second compound 0.003 µM, first compound 0.0316 µM",93.6%
same,"viability, T/C","second compound 0.003 µM, first compound 0.1 µM",94.4%
same,"viability, T/C","second compound 0.003 µM, first compound 0.316 µM",91.9%
same,"viability, T/C","second compound 0.003 µM, first compound 1 µM",83.5%
same,"viability, T/C","second compound 0.003 µM, first compound 3.16 µM",65.2%
same,"viability, T/C","second compound 0.003 µM, first compound 10 µM",34.7%
same,"viability, T/C","second compound 0.00949 µM, first compound 0.0316 µM",69.6%
same,"viability, T/C","second compound 0.00949 µM, first compound 0.1 µM",60.8%
same,"viability, T/C","second compound 0.00949 µM, first compound 0.316 µM",63.4%
same,"viability, T/C","second compound 0.00949 µM, first compound 1 µM",44.7%
same,"viability, T/C","second compound 0.00949 µM, first compound 3.16 µM",21.7%
same,"viability, T/C","second compound 0.00949 µM, first compound 10 µM",9.9%
same,"viability, T/C","second compound 0.03 µM, first compound 0.0316 µM",2.88%
same,"viability, T/C","second compound 0.03 µM, first compound 0.1 µM",2.59%
same,"viability, T/C","second compound 0.03 µM, first compound 0.316 µM",2.6%
same,"viability, T/C","second compound 0.03 µM, first compound 1 µM",1.45%
same,"viability, T/C","second compound 0.03 µM, first compound 3.16 µM",1.14%
same,"viability, T/C","second compound 0.03 µM, first compound 10 µM",1.49%
same,"viability, T/C","second compound 0.0949 µM, first compound 0.0316 µM",1.83%
same,"viability, T/C","second compound 0.0949 µM, first compound 0.1 µM",1.47%
same,"viability, T/C","second compound 0.0949 µM, first compound 0.316 µM",1.42%
same,"viability, T/C","second compound 0.0949 µM, first compound 1 µM",1.4%
same,"viability, T/C","second compound 0.0949 µM, first compound 3.16 µM",1.41%
same,"viability, T/C","second compound 0.0949 µM, first compound 10 µM",1.58%
same,"viability, T/C","second compound 0.3 µM, first compound 0.0316 µM",7.2%
same,"viability, T/C","second compound 0.3 µM, first compound 0.1 µM",1.62%
same,"viability, T/C","second compound 0.3 µM, first compound 0.316 µM",1.88%
same,"viability, T/C","second compound 0.3 µM, first compound 1 µM",1.53%
same,"viability, T/C","second compound 0.3 µM, first compound 3.16 µM",1.17%
same,"viability, T/C","second compound 0.3 µM, first compound 10 µM",4.17%
